Data on 2 molecules can be found in BindingDB's records for PubMed 9353361 (National Institute of Diabetes and Digestive and Kidney …, 1997).

SMILES strings stand for the structures. Several values for one entry are separate records, joined by “and”; a condition that tells them apart may be missing. Equal values may be shown once.

The assay concerns the target Gamma-aminobutyric acid receptor subunit alpha-5 (Rattus norvegicus, UniProt P19969).

As usually defined, the Ki is the equilibrium dissociation constant of an inhibitor or competing ligand from its target. The low end stands for a stronger hold on the target, the high end for a looser hold on the target.

Chain of Gamma-aminobutyric acid receptor subunit alpha-5 (P19969 whole entry): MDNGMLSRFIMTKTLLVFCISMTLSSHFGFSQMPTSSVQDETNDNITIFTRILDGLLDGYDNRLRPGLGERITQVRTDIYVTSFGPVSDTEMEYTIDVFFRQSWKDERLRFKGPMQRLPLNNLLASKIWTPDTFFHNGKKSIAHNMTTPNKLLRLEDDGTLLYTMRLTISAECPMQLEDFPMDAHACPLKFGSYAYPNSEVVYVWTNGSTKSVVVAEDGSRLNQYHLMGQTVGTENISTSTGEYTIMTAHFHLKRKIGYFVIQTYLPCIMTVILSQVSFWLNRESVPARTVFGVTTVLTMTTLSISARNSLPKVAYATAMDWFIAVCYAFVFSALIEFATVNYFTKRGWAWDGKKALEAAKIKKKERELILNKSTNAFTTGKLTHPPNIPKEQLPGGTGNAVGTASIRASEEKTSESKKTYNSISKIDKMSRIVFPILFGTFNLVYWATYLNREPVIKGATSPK

Regarding `CN1C(=O)CN=C(c2ccccc2)c2cc(C#N)ccc21`, the Ki was determined as 34 nM. That is a double-digit nanomolar value.

For the molecule `CN1Cc2c(C(=O)OC(C)(C)C)ncn2-c2ccc(C#C[Si](C)(C)C)cc2C1=O`, the Ki was 1.03 nM and 0.83 nM.
